Laboratory results: article PMC6508677, “Identification of druggable small molecule antagonists of the Plasmodium falciparum hexose transporter PfHT and assessment of ligand access to the glucose permeation pathway via FLAG-mediated protein engineering” (PLoS ONE, 2019)
Several values for one entry are separate records, joined by “and”; a condition that tells them apart may be missing. Equal entries are not always repeated. Where two headings read alike, the source gives them in different places.

Biological target: T1, FTPfHT (Plasmodium falciparum, UniProt Q7KWJ5)
T1 sequence (Q7KWJ5 1-504): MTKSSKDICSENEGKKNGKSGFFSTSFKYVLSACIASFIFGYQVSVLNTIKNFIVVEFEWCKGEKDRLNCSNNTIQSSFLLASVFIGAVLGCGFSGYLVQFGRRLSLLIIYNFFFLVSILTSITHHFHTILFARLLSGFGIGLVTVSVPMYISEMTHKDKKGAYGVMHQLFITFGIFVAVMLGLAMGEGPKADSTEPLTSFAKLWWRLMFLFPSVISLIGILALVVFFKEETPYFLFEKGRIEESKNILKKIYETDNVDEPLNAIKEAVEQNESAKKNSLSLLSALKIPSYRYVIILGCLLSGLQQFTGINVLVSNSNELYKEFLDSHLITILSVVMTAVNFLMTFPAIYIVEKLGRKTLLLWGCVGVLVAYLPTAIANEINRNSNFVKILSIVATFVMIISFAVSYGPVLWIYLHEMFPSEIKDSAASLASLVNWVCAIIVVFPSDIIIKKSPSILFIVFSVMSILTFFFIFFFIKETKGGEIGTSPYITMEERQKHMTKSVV
Experiment: 2-DG uptake by HEK293 cells overexpressing FLAG-tagged PfHT (FTPfHT)
Type: cell-based
Parameters: the 38–40 kDa band represents full length PfHT; expressed in transfected cells; host or cells: HEK293-FLIP (HEK293)
Conditions: for remaining activity at 0.001 µM: concentration 0.001 µM, Expt 1-3
Source text: Generation of HEK293 cells overexpressing PfHT and human GLUTs 1–4 were described elsewhere. Briefly, HEK293 cells were transfected with pcDNA3.1 FLII12Pglu-7006 (Addgene), containing the fluorescence resonance energy transfer (FRET) glucose sensor (HEK293-FLIP) and PfHT, human GLUT1 (hGLUT1), hGLUT2, hGLUT3, hGLUT4, hGLUT5 or hGLUT8 using Optifect (Life Technologies) according to manufacturer’s specifications. To increase retention of GLUT8 at the plasma membrane, the dileucine sorting signal E^7E^8XXXLL was modified to R^7R^8XXXLL as described in [17]. Stable transfectants were selected for G418 and hygromycin resistance to select for FRET sensor and hexose transporter, respectively. HEK293-FLIP cells were also used to generate cells stably transfected with FLAG-tagged PfHT (FTPfHT). FLAG tag ([…]) followed by a triple glycine linker and a tobacco etch virus (TEV) protease site (ENLYFQS) followed by a triple glycine linker was added to the N-terminus of PfHT via PCR [18] using Phusion Hot Start II High-Fidelity DNA Polymerase (Fisher Scientific). Single clones were selected by comparing their abilities to transport glucose as assayed via FRET and radiolabeled hexose uptake. In all cell lines, except for HEK293 cells overexpressing hGLUT1 and hGLUT5, native hGLUT1 was knocked down using shRNA as described elsewhere. Transcript levels of the individual GLUTs expressed in each cell line are as described in [13, 15] and in S1 Fig.
Glucose uptake by P. falciparum was performed essentially as described. P. falciparum strain 3D7 was cultured in 100 mm tissue culture dishes (Techno Plastic Products) in a 2% suspension of human erythrocytes and RPMI 1640 medium until reaching > 7.5% parasitemia. Cells were pelleted via centrifugation and resuspended in RPMI 1640 medium. To determine the uptake of radiolabeled glucose into the parasite, parasites were isolated from infected erythrocytes by permeablization with saponin (0.05 w/v), followed by centrifugation, aspiration of supernatant and washing of the pellet 3X with saline solution (135 mM NaCl, 2 mM KCl, 25 mM HEPES, 0.2 mM glucose and 1 mM MgCl2; pH 7.1) to remove cellular debris. WU-1 or DMSO vehicle were added to 100 μl parasites (resuspended in saline) 5 min prior to the addition of 100 μl [^14C]2-DOG (0.2- μCi/ml final concentration). 2-DG uptake was stopped after 2 min by layering the entire reaction over 300 μl of an oil mixture (5:4 mix of dibutyl phthalate / dinonyl phthalate) in Eppendorf tubes and centrifuged at 15,850 × g for 2 mins. The ratio of the estimated intracellular concentration of radiolabel relative to the extracellular concentration were calculated as described. Uptake of radiolabeled hexose into HEK293 cells was measured in glucose-free HBSS as described previously. Briefly, cells were plated at 400,000 cells/well overnight at 37°C in 24-well plates pre-treated with PEI. After 30-min incubation at 37°C in glucose-free HBSS in the presence of vehicle or increasing concentrations of compound, 2-DG uptake was measured in glucose-free HBSS for 4 min at 37°C. Cultures were washed in ice-cold 1X PBS and lysed in 0.1% Triton X-100 in 1X PBS. Radiolabeled hexose uptake was determined by liquid scintillation counting (Ultima Gold, Thermo Fisher) and normalized to total protein per well. Uptake data are plotted as percent uptake relative to vehicle-treated cells. Kinetic analyses were performed using the indicated concentrations of substrate and WU-1, with quenching of uptake after 1 min incubation. Incubation times had been previously determined as being in the linear range of time-dependent radiolabeled hexose uptake (2 min for 2-DG uptake into freed parasites; 2 and 4 min for D-Frc and 2-DG uptake HEK cell lines, respectively). Data were fit by least squares nonlinear regression analysis using GraphPad Prism 6.0 software.

[1] = FTPfHT, 2-DG Uptake, average of Expt 1-3, read-out: AVE IC50
[2] = FTPfHT, 2-DG Uptake, single experiments Expt 1-3, read-out: IC50
[3] = HEK293, 4 min, FTPfHT, read-out: 2-DG Uptake AVE
[4] = IC50 for inhibition of 2-DG uptake, HEK293 cells overexpressing FTPfHT

SMILES: C=C1[C@@H](C)[C@H]2[C@H](Cc3ccccc3)NC(=O)[C@]23OC(=O)/C=C/[C@H](O)CCC[C@@H](C)C/C=C/[C@H]3[C@@H]1O [CB, cytochalasin B]
- IC50 [1]: 29.9 µM
- IC50 [2]: 26.6 µM and 30.5 µM and 32.6 µM
- remaining activity at 0.001 µM [3]: 100%
- remaining activity at 0.3906 µM (HEK293, 4 min, FTPfHT, concentration 0.3906 µM, read-out: 2-DG Uptake AVE): 97.8%
- remaining activity at 0.7812 µM (HEK293, 4 min, FTPfHT, concentration 0.7812 µM, read-out: 2-DG Uptake AVE): 93.2%
- remaining activity at 1.56 µM (HEK293, 4 min, FTPfHT, concentration 1.56 µM, read-out: 2-DG Uptake AVE): 95.4%
- remaining activity at 3.125 µM (HEK293, 4 min, FTPfHT, concentration 3.125 µM, read-out: 2-DG Uptake AVE): 90%
- remaining activity at 6.25 µM (HEK293, 4 min, FTPfHT, concentration 6.25 µM, read-out: 2-DG Uptake AVE): 81.9%
- remaining activity at 12.5 µM (HEK293, 4 min, FTPfHT, concentration 12.5 µM, read-out: 2-DG Uptake AVE): 72.3%
- remaining activity at 25 µM (HEK293, 4 min, FTPfHT, concentration 25 µM, read-out: 2-DG Uptake AVE): 56%
- remaining activity at 50 µM (HEK293, 4 min, FTPfHT, concentration 50 µM, read-out: 2-DG Uptake AVE): 44.6%
- remaining activity at 100 µM (HEK293, 4 min, FTPfHT, concentration 100 µM, read-out: 2-DG Uptake AVE): 32.2%
- remaining activity at 200 µM (HEK293, 4 min, FTPfHT, concentration 200 µM, read-out: 2-DG Uptake AVE): 22.7%
- remaining activity at 400 µM (HEK293, 4 min, FTPfHT, concentration 400 µM, read-out: 2-DG Uptake AVE): 12.9%
- IC50 [4]: 29.9 ± 1.8 µM

SMILES: Cc1ccc(S(=O)(=O)CCNC(=O)c2c(-c3c(Cl)cccc3Cl)noc2C)cc1 [WU-1, 3-(2,6-dichlorophenyl)-5-methyl-N-[2-(4-methylbenzenesulfonyl)ethyl]-1,2-oxazole-4-carboxamide]
- IC50 [1]: 19.5 µM
- IC50 [2]: 19.2 µM and 18.9 µM and 20.5 µM
- remaining activity at 0.001 µM [3]: 100%
- remaining activity at 0.313 µM (HEK293, 4 min, FTPfHT, concentration 0.313 µM, read-out: 2-DG Uptake AVE): 95.9%
- remaining activity at 0.625 µM (HEK293, 4 min, FTPfHT, concentration 0.625 µM, read-out: 2-DG Uptake AVE): 92.1%
- remaining activity at 1.25 µM (HEK293, 4 min, FTPfHT, concentration 1.250 µM, read-out: 2-DG Uptake AVE): 81.9%
- remaining activity at 2.5 µM (HEK293, 4 min, FTPfHT, concentration 2.500 µM, read-out: 2-DG Uptake AVE): 84.9%
- remaining activity at 5 µM (HEK293, 4 min, FTPfHT, concentration 5.0 µM, read-out: 2-DG Uptake AVE): 80.6%
- remaining activity at 10 µM (HEK293, 4 min, FTPfHT, concentration 10.0 µM, read-out: 2-DG Uptake AVE): 64.8%
- remaining activity at 20 µM (HEK293, 4 min, FTPfHT, concentration 20 µM, read-out: 2-DG Uptake AVE): 52.4%
- remaining activity at 40 µM (HEK293, 4 min, FTPfHT, concentration 40 µM, read-out: 2-DG Uptake AVE): 41.1%
- remaining activity at 80 µM (HEK293, 4 min, FTPfHT, concentration 80 µM, read-out: 2-DG Uptake AVE): 29.3%
- remaining activity at 160 µM (HEK293, 4 min, FTPfHT, concentration 160 µM, read-out: 2-DG Uptake AVE): 19.9%
- remaining activity at 225 µM (HEK293, 4 min, FTPfHT, concentration 225 µM, read-out: 2-DG Uptake AVE): 17.1%
- IC50 [4]: 19.5 ± 0.5 µM
